Reference: patent publication EP2114888B1, “TRICYCLIC COMPOUNDS AND THEIR USE AS GLUCOCORTICOID RECEPTOR MODULATORS” (priority 2007, dated 2008)

Tests used:
[1] = Oral absorption profile, time to Cmax in dogs; settings: dog, in vivo
IL-6 = test: IL-1β-stimulated IL-6 production in A549 lung epithelial cells; format: cell-based, Human; settings: Homo sapiens, A549
Procedure: Human A549 lung epithelial cells (American Type Culture Collection, Rockville, MD) were cultured in Kaighn's F-12K medium with penicillin-streptomycin (10 U/mL) and 10% heat-inactivated fetal bovine serum (all from Invitrogen, Grand Island, NY). A549 cells were plated at a density of 30,000 cells/well in 96-well plates and incubated overnight at 37°C and with 5% CO2. The cells were serum-starved by replacing the growth medium with serum-free Kaighn's F-12K medium with penicillin-streptomycin (10 U/mL) and, again, incubating overnight at 37°C and with 5% CO2. On the third day, the medium was replaced with fresh serum-free medium and the cells were incubated with or without compound (vehicle was DMSO at 0.1 % maximum concentration) for approximately 1 hour and then stimulated with 1 ng/mL recombinant human IL-1β (R&D Systems, Minneapolis, MN) for 20 hours at 37°C and with 5% CO2. Cell supernatants were collected for determination of IL-6 levels using MSD (Meso Scale Discovery, Gaithersburg, MD) 96-well Single Spot plates as per the manufacturer's instructions. Plates were read with an MSD Sector Imager 6000. […] Percent inhibition for each compound concentration, relative to these controls, was calculated using Excel (Microsoft, Redmond, WA). IC50 values were generated using GraFit 5.0 data analysis software (Erithacus Software Ltd., Surrey, UK).

[2] = system: Mouse Collagen-induced arthritis (mCIA); test: Therapeutic mouse collagen-induced arthritis (mCIA) model; format: in vivo, Male DBA/J mice
Text: Mouse Collagen-induced arthritis is a commonly used chronic, preclinical model of rheumatoid arthritis in which joint swelling and bone destruction occur following immunization with type II collagen. Reduction of disease incidence and severity has been shown previously to be predictive of disease-modification and signs and symptoms mitigation, respectively, in a clinical setting. In the therapeutic mCIA model, induction of disease incidence and severity was synchronized via LPS stimulation. Male DBA/J mice were immunized with 100 ug of bovine type II collagen (bCII) on day 0. […] Dosing of compounds was initiated in the therapeutic mode on day 34 and continued through day 49. Different treatments were compared by measuring the decrease in incidence (i.e., resolution of disease) and the decrease in severity of paw swelling over time.

[3] = Cortical bone histomorphometry to determine bone formation rate (BFR); format: in vivo, mice
Procedure: Calcein incorporates into the bone mineral and allows measurement of bone formation rate. Calcein was dissolved in 2% sodium bicarbonate. During the tissue harvest, the left tibiae were excised and cleaned for cortical histomorphometry measurements. After all skin and muscle were removed, tibiae were placed in 70% ethanol (4°C) in the dark for a minimum of 24 hours.
Ground transverse sections were used for histomorphometric analysis of cortical bone. Bones were sectioned using a low-speed saw (Isomet, Buehler, Lake Bluff, IL) equipped with a diamond wafer blade. The end of each tibia was removed proximal to tibia-fibula synostosis and a […] cross-section was cut. Using a roughened glass plate and a cork, sections were ground to […] until transparent and all labels were distinguishable under a fluorescent microscope. […] Using the Osteomeasure Bone Analysis Program (Osteometrics, Inc., Decatur, Georgia), bone formation rate was calculated by tracing the 1^s1 and 3rd fluorescent labels and the inner and outer perimeter of the bone. Bone formation rate was calculated by the following equation: (Inter-label width/Label interval) * (Labeled perimeter/Bone perimeter). At least five samples were measured from each treatment group in each study.

in vivo = settings: rat, po
[4] = Caco-2 cell monolayer A→B permeability assay; settings: human
Text: The Caco-2 cell monolayer is an in vitro tissue culture model of the intestinal epithelium. These cells are of human colonic origin and become polarized, fully differentiated enterocytes in 2-3 weeks. Once differentiated, these cells have tight junctions and express various biochemical processes such as active efflux transporters including P-glycoprotein (P-gp). With this model, it is possible to determine the apparent permeability (Papp) of a compound across the polarized Caco-2 cell monolayer.
An A→B Assay is performed with Caco-2 cell monolayers to determine compound Papp from A chamber to B chamber. This Papp is representative of luminal (gut) to serosal (blood) compound transport across intestinal epithelium that may be seen during intestinal absorption.

Cc1ncccc1NC(=O)c1ccc2c(c1)CC[C@@H]1C[C@@](O)(C(F)(F)F)CC[C@@]21Cc1ccccc1 [Example 1, (4βS,7R,8αR)-4β-benzyl-7-hydroxy-N-(2-methylpyridin-3-yl)-7-(trifluoromethyl)-4β,5,6,7,8,8α,9,10-octahydrophenanthrene-2-carboxamide]
Tmax [1]: 1.5 h
inhibition (IL-6): 86.1%
ED80 ([2]; Mus musculus, dosing day 34 through day 49, read-out: Therapeutic mCIA (ED80 dose)): 1.5 mg/kg
Therapeutic mCIA (ED50 dose) ([2]; dosing day 34 through day 49, listed as Example 1 free base): 0.4 mg/kg
Disease severity (therapeutic mCIA) EAUC50 (AUC 0-4 hr) ([2]; mice): 0.09 µg·h/mL
Disease severity (therapeutic mCIA) EAUC80 (AUC 0-4 hr) ([2]; mice): 0.19 µg·h/mL
Cortical bone formation rate (BFR) EAUC50 ([3]; data set 2): 0.35
Cortical bone formation rate (BFR) EAUC80 ([3]; data set 2): 1.76
Cortical bone formation rate (BFR) EAUC50 (AUC 0-4 hr) ([3]; mice): 270 ng·h/mL
Cortical bone formation rate (BFR) EAUC80 (AUC 0-4 hr) ([3]; mice): 1550 ng·h/mL
AUC (in vivo): 460 ng·h/mL
Papp A→B [4]: 37.5 ×10⁻⁶ cm/s
